According to patent US11083717B2, “Compositions and methods for drug sensitization of parasites” (The Texas A&M University System, priority 2015, dated 2021):
Read-outs that look alike come from different tables or passages of the source.

How the values were obtained:
S. cerevisiae = assay: in vitro; conditions: Saccharomyces cerevisiae
Source text: (§1) These tests included an IL-12 mouse model test to determine compound efficacy, verification of MIC50 for CP, cytotoxicity test for fibroblasts and yeast to determine potential toxic effects, a Human ether-a-go-go-related gene (hERG) test to determine potential cardiotoxicity, an AMES test tp determine mutagenic potential, a Safety Screen 44 test to determine common negative off-target drug interastion (Eurofins Cerep, SA, France), a cytochrome P450 (CYP) test to determine potential liver toxicity, a maximum tolerated dose, test, a Pharmacokinetics (PK) test to determine fate of the substance administered to a living organism tests for plasma stability in human and mouse, to measure the degradation of compound in plasma MClint and HClint test to determine in vitro intrinsic clearance for Mouse and Human, and kinetic solubility and plasma protein binding tests in mouse and human.

human fibroblast = assay: in vitro
Source text: as §1

SMILES	concentrations at which not toxic, S. cerevisiae cytotoxicity testing (S. cerevisiae)	concentrations at which not toxic, human fibroblast cytotoxicity testing (human fibroblast)	concentrations at which not toxic, human fibroblast cytotoxicity testing (human fibroblast; human)
CC(C)NC(=O)Cc1ccc(Oc2nc3ccc(F)cc3s2)cc1O [NZ405, 2-{4-[(6-fluoro-1,3-benzothiazol-2-yl)oxy]-2-hydroxyphenyl}-N-(propan-2-yl)acetamide]	≥ 100 µM	≥ 100 µM	–
CCOC(=O)[C@@H](C)Oc1ccc(Oc2nc3ccc(F)cc3s2)cc1 [NZ-251, ethyl (2R)-2-{4-[(6-fluoro-1,3-benzothiazol-2-yl)oxy]phenoxy}propanoate]	≥ 100 µM	–	≥ 100 µM
O=C(O)Cc1ccc(Oc2nc3ccc(Cl)cc3s2)cc1 [NZ-287, 2-{4-[(6-chloro-1,3-benzothiazol-2-yl)oxy]phenyl}acetic acid]	≥ 100 µM	–	≥ 100 µM
CON(C)C(=O)COc1ccc(Oc2cnc3cc(Cl)ccc3n2)cc1 [NZ-290, 2-{4-[(6-chloroquinoxalin-2-yl)oxy]phenoxy}-N-methoxy-N-methylacetamide]	≥ 100 µM	≥ 100 µM	–
CONC(=O)Cc1ccc(Oc2nc3ccc(Cl)cc3s2)cc1 [NZ-293, 2-{4-[(6-chloro-1,3-benzothiazol-2-yl)oxy]phenyl}-N-methoxyacetamide]	≥ 100 µM	–	≥ 100 µM
COC(=O)Cc1ccc(Oc2nc3ccc(F)cc3s2)cc1 [NZ-294, methyl 2-{4-[(6-fluoro-1,3-benzothiazol-2-yl)oxy]phenyl}acetate]	≥ 100 µM	–	≥ 100 µM
O=C(O)Cc1ccc(Oc2cnc3cc(Cl)ccc3n2)cc1 [NZ-298, 2-{4-[(6-chloroquinoxalin-2-yl)oxy]phenyl}acetic acid]	≥ 100 µM	–	≥ 100 µM
O=C(O)Cc1ccc(Oc2nc3ccc(F)cc3s2)cc1 [NZ-299, 2-{4-[(6-fluoro-1,3-benzothiazol-2-yl)oxy]phenyl}acetic acid]	≥ 100 µM	≥ 100 µM	–
CONC(=O)Cc1ccc(Oc2nc3ccc(F)cc3s2)cc1 [NZ-300, 2-{4-[(6-fluoro-1,3-benzothiazol-2-yl)oxy]phenyl}-N-methoxyacetamide]	≥ 100 µM	≥ 100 µM	–
CONC(=O)Cc1ccc(Oc2cnc3cc(Cl)ccc3n2)cc1 [NZ-301, 2-{4-[(6-chloroquinoxalin-2-yl)oxy]phenyl}-N-methoxyacetamide]	≥ 100 µM	≥ 100 µM	–
COC(=O)COc1ccc(Oc2nc3ccc(F)cc3s2)cc1 [NZ-303, methyl 2-{4-[(6-fluoro-1,3-benzothiazol-2-yl)oxy]phenoxy}acetate]	–	–	≥ 100 µM
O=C(O)COc1ccc(Oc2nc3ccc(F)cc3s2)cc1 [NZ-304, 2-{4-[(6-fluoro-1,3-benzothiazol-2-yl)oxy]phenoxy}acetic acid]	≥ 100 µM	–	≥ 100 µM
CONC(=O)COc1ccc(Oc2nc3ccc(F)cc3s2)cc1 [NZ-305, 2-{4-[(6-fluoro-1,3-benzothiazol-2-yl)oxy]phenoxy}-N-methoxyacetamide]	≥ 100 µM	–	≥ 100 µM
CCNC(=O)COc1ccc(Oc2cnc3cc(Cl)ccc3n2)cc1 [NZ-306, 2-{4-[(6-chloroquinoxalin-2-yl)oxy]phenoxy}-N-ethylacetamide]	≥ 100 µM	≥ 100 µM	–
CC(C)NC(=O)COc1ccc(Oc2cnc3cc(Cl)ccc3n2)cc1 [NZ-307, 2-{4-[(6-chloroquinoxalin-2-yl)oxy]phenoxy}-N-(propan-2-yl)acetamide]	≥ 100 µM	≥ 100 µM	–
COC(=O)C(C)c1ccc(Oc2cnc3cc(Cl)ccc3n2)cc1 (stereo not drawn) [NZ-308, methyl 2-{4-[(6-chloroquinoxalin-2-yl)oxy]phenyl}propanoate]	≥ 100 µM	–	≥ 100 µM
CC(C(=O)O)c1ccc(Oc2cnc3cc(Cl)ccc3n2)cc1 (stereo not drawn) [NZ-309, 2-{4-[(6-chloroquinoxalin-2-yl)oxy]phenyl}propanoic acid]	≥ 100 µM	–	≥ 100 µM
CC(C(=O)O)c1ccc(Oc2nc3ccc(Cl)cc3s2)cc1 (stereo not drawn) [NZ-312, 2-{4-[(6-chloro-1,3-benzothiazol-2-yl)oxy]phenyl}propanoic acid]	≥ 100 µM	–	≥ 100 µM
CONC(=O)C(O)c1ccc(Oc2nc3ccc(Cl)cc3s2)cc1 (stereo not drawn) [NZ-338, 2-{4-[(6-chloro-1,3-benzothiazol-2-yl)oxy]phenyl}-2-hydroxy-N-methoxyacetamide]	–	–	≥ 100 µM

SMILES	concentrations at which not toxic, S. cerevisiae cytotoxicity testing (S. cerevisiae)	concentrations at which not toxic, human fibroblast cytotoxicity testing (human fibroblast)	concentrations at which not toxic, human fibroblast cytotoxicity testing (human fibroblast; human)
CN(C)C(=O)Nc1ccc(Oc2cnc3cc(Cl)ccc3n2)cc1 [NZ-343, 1-{4-[(6-chloroquinoxalin-2-yl)oxy]phenyl}-3,3-dimethylurea]	–	–	≥ 100 µM
CC(C)NC(=O)Nc1ccc(Oc2cnc3cc(F)ccc3n2)cc1 [NZ-345, 1-{4-[(6-fluoroquinoxalin-2-yl)oxy]phenyl}-3-(propan-2-yl)urea]	–	≥ 100 µM	–
CC(C)NC(=O)Nc1ccc(Oc2ccc3cc(Cl)ccc3n2)cc1 [NZ-346, 1-{4-[(6-chloroquinolin-2-yl)oxy]phenyl}-3-(propan-2-yl)urea]	–	≥ 100 µM	–
NCc1ccc(Oc2nc3ccc(Cl)cc3s2)cc1 [NZ-348, {4-[(6-chloro-1,3-benzothiazol-2-yl)oxy]phenyl}methanamine]	25 to 50 µM	–	–
CN(C)C(=O)NCc1ccc(Oc2nc3ccc(Cl)cc3s2)cc1 [NZ-349, 1-({4-[(6-chloro-1,3-benzothiazol-2-yl)oxy]phenyl}methyl)-3,3-dimethylurea]	≥ 100 µM	–	–
CNC(=O)NCc1ccc(Oc2nc3ccc(Cl)cc3s2)cc1 [NZ-350, 1-({4-[(6-chloro-1,3-benzothiazol-2-yl)oxy]phenyl}methyl)-3-methylurea]	≥ 100 µM	–	–
CC(C)(C)OC(=O)Nc1ccc(Oc2nc3ccc(Cl)cc3s2)cc1 [NZ-351, tert-butyl N-{4-[(6-chloro-1,3-benzothiazol-2-yl)oxy]phenyl}carbamate]	≥ 100 µM	–	–
Nc1ccc(Oc2nc3ccc(Cl)cc3s2)cc1 [NZ-352, 4-[(6-chloro-1,3-benzothiazol-2-yl)oxy]aniline]	25 to 50 µM	–	–
CNC(=O)Nc1ccc(Oc2nc3ccc(Cl)cc3s2)cc1 [NZ-353, 1-{4-[(6-chloro-1,3-benzothiazol-2-yl)oxy]phenyl}-3-methylurea]	≥ 100 µM	–	–
CN(C)C(=O)Nc1ccc(Oc2nc3ccc(Cl)cc3s2)cc1 [NZ-354, 1-{4-[(6-chloro-1,3-benzothiazol-2-yl)oxy]phenyl}-3,3-dimethylurea]	50 to 100 µM	–	–
COC(=O)C(OC)c1ccc(Oc2nc3ccc(Cl)cc3s2)cc1 (stereo not drawn) [NZ-355, methyl 2-{4-[(6-chloro-1,3-benzothiazol-2-yl)oxy]phenyl}-2-methoxyacetate]	≥ 100 µM	–	–
COC(C(=O)O)c1ccc(Oc2nc3ccc(Cl)cc3s2)cc1 (stereo not drawn) [NZ-356]	≥ 100 µM	–	–
CONC(=O)C(OC)c1ccc(Oc2nc3ccc(Cl)cc3s2)cc1 (stereo not drawn) [NZ-357, 2-{4-[(6-chloro-1,3-benzothiazol-2-yl)oxy]phenyl}-N,2-dimethoxyacetamide]	≥ 100 µM	–	–
Cc1ccc2nc(Oc3ccc(NC(=O)NC(C)C)cc3)sc2c1 [NZ-358, 1-{4-[(6-methyl-1,3-benzothiazol-2-yl)oxy]phenyl}-3-(propan-2-yl)urea]	≥ 100 µM	–	–
CC(C)NC(=O)Nc1ccc(Oc2nc3ccc(Br)cc3s2)cc1 [NZ-359, 1-{4-[(6-bromo-1,3-benzothiazol-2-yl)oxy]phenyl}-3-(propan-2-yl)urea]	≥ 100 µM	–	–
CC(C)NC(=O)Nc1ccc(Oc2nc3ccccc3s2)cc1 [NZ-360, 1-{4-(1,3-benzothiazol-2-yloxy)phenyl]-3-(propan-2-yl)urea]	≥ 100 µM	–	–
C[C@@H](Oc1ccc(Oc2nc3ccc(Cl)cc3o2)cc1)C(=O)O [fenoxaprop-p, (R)-2-[4-(6-chlorobenzoxazol-2-yloxy)phenoxy]propionic acid, reference compound]	–	≥ 100 µM	–
CCOC(=O)[C@@H](C)Oc1ccc(Oc2nc3ccc(Cl)cc3o2)cc1 [fenoxaprop-p-ethyl, ethyl (2R)-2-{4-[(6-chloro-1,3-benzoxazol-2-yl)oxy]phenoxy}propanoate, reference compound]	–	–	≥ 100 µM
